The values below come from patent US20110301142A1, “ANTAGONISTS OF LYSOPHOSPHATIDIC ACID RECEPTORS” (priority 2008, published 2011).

In one test the target is T1, human LPA3 (Homo sapiens, UniProt Q9UBY5).
T1 construct: The full-length cDNA fragment for human LPA3 was obtained by PCR from the vector; expressed in transfected cells; cDNA from the Missouri S&T cDNA Resource Center
T1 sequence (Q9UBY5 1-353): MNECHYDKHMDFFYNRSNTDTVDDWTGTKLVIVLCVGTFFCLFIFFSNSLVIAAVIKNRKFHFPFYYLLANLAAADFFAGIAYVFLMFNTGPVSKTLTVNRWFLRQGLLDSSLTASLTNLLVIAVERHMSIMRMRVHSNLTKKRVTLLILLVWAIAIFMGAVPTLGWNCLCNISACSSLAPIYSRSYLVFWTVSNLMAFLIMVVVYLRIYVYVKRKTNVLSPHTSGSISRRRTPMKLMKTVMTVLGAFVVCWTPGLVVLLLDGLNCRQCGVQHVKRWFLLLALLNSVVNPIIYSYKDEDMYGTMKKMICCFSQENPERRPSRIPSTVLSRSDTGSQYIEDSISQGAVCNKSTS
Nature of the test: LPA3 calcium flux assay. Type of test: cell-based. The following applies: Human LPA3 expressing CHO cells, stimulated with 10 nM LPA; read-out: HLPA3 Ca Flux IC50. An outline of the steps:
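Stably transfected CHO cells, serum-starved overnight, loaded with Calcium 4 dye 1 h at 37 °C in HBSS/20 mM Hepes with 0.3% fatty-acid-free HSA. Compounds preincubated 30 min at room temperature, then cells stimulated with 10 nM LPA; intracellular Ca2+ read by fluorescence; IC50 from titration curves.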

Another test concerns the target T2, human LPA1 (Homo sapiens, UniProt Q92633).
T2 construct: the full-length cDNA for human LPA1 was obtained by PCR of the reverse transcription reaction; expressed in transfected cells
The test can be described thus: LPA1 calcium flux assay (HLPA1 Ca Flux). Type of test: cell-based. The following applies: Human LPA1 expressing CHO cells, stimulated with 10 nM LPA. The procedure, abridged:
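Compounds were fitted for IC50 from inhibition of the intracellular calcium rise evoked by 10 nM LPA. Test system: dye-loaded CHO cells stably transfected with human LPA1, serum-free overnight, with 30 min compound pretreatment at room temperature before stimulation.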

T2 sequence (Q92633 whole entry): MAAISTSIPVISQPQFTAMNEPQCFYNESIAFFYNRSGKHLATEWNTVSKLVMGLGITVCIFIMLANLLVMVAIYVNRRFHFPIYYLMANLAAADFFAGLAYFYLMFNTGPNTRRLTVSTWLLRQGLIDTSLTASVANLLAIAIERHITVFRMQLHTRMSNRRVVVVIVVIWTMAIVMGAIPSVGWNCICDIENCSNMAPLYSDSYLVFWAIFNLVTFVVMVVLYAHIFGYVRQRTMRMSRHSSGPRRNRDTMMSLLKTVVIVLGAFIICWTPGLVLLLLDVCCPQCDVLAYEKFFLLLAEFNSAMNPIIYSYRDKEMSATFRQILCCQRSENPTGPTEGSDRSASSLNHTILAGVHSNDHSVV

Consider `Cc1noc(-c2ccc(-c3ccc(CC(=O)O)cc3)cc2)c1NC(=O)OC(C)c1ccccc1C(F)(F)F` (centres unmarked) [Compound 1-23, (4′-{3-Methyl-4-[1-(2-trifluoromethyl-phenyl)-ethoxycarbonylamino]-isoxazol-5-yl}-biphenyl-4-yl)-acetic acid], for which the IC50 at human LPA3 was 1 to 50 µM; on human LPA1 it was less than 0.3 µM.
For `Cc1noc(-c2ccc(C3CCC(C(=O)O)CC3)cc2)c1NC(=O)OC(C)c1ccccc1Cl` (centres unmarked) [Compound 1-67, 4-(4-{4-[1-(2-Chloro-phenyl)-ethoxycarbonylamino]-3-methyl-isoxazol-5-yl}-phenyl)-cyclohexanecarboxylic acid], in that order: 1 to 50 µM and less than 0.3 µM.
As to `Cc1noc(-c2ccc(-c3ccc(CC(=O)O)cc3)cc2)c1NC(=O)OC(C)c1cc(F)ccc1F` (centres unmarked) [Compound 1-119, (4′-{4-[1-(2,5-Difluoro-phenyl)-ethoxycarbonylamino]-3-methyl-isoxazol-5-yl}-biphenyl-4-yl)-acetic acid], the half-inhibitory concentration (IC50) was 1 to 50 µM on human LPA3 and less than 0.3 µM at human LPA1.
For `Cc1noc(-c2ccc(-c3ccc(CC(=O)O)cc3)c(Cl)c2)c1NC(=O)O[C@H](C)c1ccccc1Cl` [Compound 1-131, (2′-Chloro-4′-{4-[(R)-1-(2-chloro-phenyl)-ethoxycarbonylamino]-3-methyl-isoxazol-5-yl}-biphenyl-4-yl)-acetic acid], the IC50 at human LPA3 is 1 to 50 µM; at human LPA1, less than 0.3 µM.
Consider `Cc1noc(-c2ccc(-c3ccc(CCC(=O)O)cc3)cc2)c1NC(=O)OC(C)c1ccccc1Cl` (centres unmarked) [Compound 1-62, 3-(4′-{4-[1-(2-Chloro-phenyl)-ethoxycarbonylamino]-3-methyl-isoxazol-5-yl}-biphenyl-4-yl)-propionic acid], for which the IC50 was 1 to 50 µM at human LPA3 and less than 0.3 µM at human LPA1.
As to `Cc1noc(-c2ccc(-c3ccc(CC#N)cc3)cc2)c1NC(=O)O[C@H](C)c1ccccc1F` [Compound 2-3, [5-(4′-Cyanomethyl-biphenyl-4-yl)-3-methyl-isoxazol-4-yl]-carbamic acid (R)-1-(2-fluoro-phenyl)-ethyl ester], the 50% inhibitory concentration (IC50) on human LPA3 was more than 50 µM; at human LPA1 it was less than 0.3 µM.
Consider `Cc1noc(-c2cccc(C3=CCC(C(=O)O)CC3)c2)c1NC(=O)OC(C)c1ccccc1Cl` (centres unmarked) [Compound 1-45, 4-(3-{4-[1-(2-Chloro-phenyl)-ethoxycarbonylamino]-3-methyl-isoxazol-5-yl}-phenyl)-cyclohex-3-enecarboxylic acid], for which the figures for the 50% inhibitory concentration (IC50) on human LPA3 and at human LPA1 were more than 50 µM and less than 0.3 µM, respectively.
The matching figures for `Cc1noc(-c2ccc(-c3ccc(CC(=O)O)cc3)cc2)c1NC(=O)OC(C)c1cccc(C(F)(F)F)c1` (centres unmarked) [Compound 1-24, (4′-{3-Methyl-4-[1-(3-trifluoromethyl-phenyl)-ethoxycarbonylamino]-isoxazol-5-yl}-biphenyl-4-yl)-acetic acid]: 1 to 50 µM and 0.3 to 1 µM.
Regarding `Cc1noc(-c2ccc(COc3ccc(CC(=O)O)cc3)cc2)c1NC(=O)OC(C)c1ccccc1Cl` (centres unmarked) [Compound 1-100, [4-(4-{4-[1-(2-Chloro-phenyl)-ethoxycarbonylamino]-3-methyl-isoxazol-5-yl}-benzyloxy)-phenyl]-acetic acid], the IC50 at human LPA3 is 1 to 50 µM; on human LPA1, less than 0.3 µM.
The matching figures for `Cc1noc(-c2ccc(-c3ccc(C(C)(C)C(=O)O)cn3)cc2)c1NC(=O)OC(C)c1ccccc1F` (centres unmarked) [Compound 1-87, 2-[6-(4-{4-[1-(2-Fluoro-phenyl)-ethoxycarbonylamino]-3-methyl-isoxazol-5-yl}-phenyl)-pyridin-3-yl]-2-methyl-propionic acid]: 1 to 50 µM and less than 0.3 µM.
For `COc1ccccc1C(C)OC(=O)Nc1c(C)noc1-c1ccc(-c2ccc(CC(=O)O)cc2)cc1` (centres unmarked) [Compound 1-28, (4′-{4-[1-(2-Methoxy-phenyl)-ethoxycarbonylamino]-3-methyl-isoxazol-5-yl}-biphenyl-4-yl)-acetic acid], in that order: more than 50 µM and less than 0.3 µM.
For `COc1ccc(CC(=O)O)cc1-c1cccc(-c2onc(C)c2NC(=O)OC(C)c2ccccc2Cl)c1` (centres unmarked) [Compound 1-30, (3′-{4-[1-(2-Chloro-phenyl)-ethoxycarbonylamino]-3-methyl-isoxazol-5-yl}-6-methoxy-biphenyl-3-yl)-acetic acid], in that order: 1 to 50 µM and 0.3 to 1 µM.
For the molecule `Cc1noc(-c2ccc(-c3ccc(CC(=O)O)cc3)cc2)c1NC(=O)O[C@@H](C)c1ccccc1` [Compound 1-143, {4′-[3-Methyl-4-((S)-1-phenyl-ethoxycarbonylamino)-isoxazol-5-yl]-biphenyl-4-yl}-acetic acid], the IC50 was 1 to 50 µM at human LPA3 and less than 0.3 µM at human LPA1.
For `Cc1noc(-c2ccc(-c3ccccc3CC(=O)O)cc2)c1NC(=O)OC(C)c1ccccc1Cl` (centres unmarked) [Compound 1-57, (4′-{4-[1-(2-Chloro-phenyl)-ethoxycarbonylamino]-3-methyl-isoxazol-5-yl}-biphenyl-2-yl)-acetic acid], in that order: 1 to 50 µM and less than 0.3 µM.
For `COc1ccc(CC(=O)O)cc1Cc1ccc(-c2onc(C)c2NC(=O)OC(C)c2ccccc2Cl)cc1` (centres unmarked) [Compound 1-7, [3-(4-{4-[1-(2-Chloro-phenyl)-ethoxycarbonylamino]-3-methyl-isoxazol-5-yl}-benzyl)-4-methoxy-phenyl]-acetic acid], in that order: 1 to 50 µM and 0.3 to 1 µM.
For `Cc1noc(-c2ccc(-c3ccc(C(C)C(=O)O)cc3)cc2)c1NC(=O)O[C@H](C)c1ccccc1F` (stereo partly drawn) [Compound 1-91, 2-(4′-{4-[(R)-1-(2-Fluoro-phenyl)-ethoxycarbonylamino]-3-methyl-isoxazol-5-yl}-biphenyl-4-yl)-propionic acid], in that order: 1 to 50 µM and less than 0.3 µM.
Regarding `Cc1noc(-c2ccc(-c3ncc(C(=O)O)s3)cc2)c1NC(=O)OC(C)c1ccccc1Cl` (centres unmarked) [Compound 1-94, 2-(4-{4-[1-(2-Chloro-phenyl)-ethoxycarbonylamino]-3-methyl-isoxazol-5-yl}-phenyl)-thiazole-5-carboxylic acid], the figures for the IC50 at human LPA3 and on human LPA1 were 1 to 50 µM and less than 0.3 µM, respectively.
For `Cc1noc(-c2ccc(-c3ccc(C(C)C(=O)O)cc3)cc2)c1NC(=O)OC(C)c1ccccc1F` (centres unmarked) [Compound 1-74, 2-(4′-{4-[1-(2-Fluoro-phenyl)-ethoxycarbonylamino]-3-methyl-isoxazol-5-yl}-biphenyl-4-yl)-propionic acid], the 50% inhibitory concentration (IC50) at human LPA3 was 1 to 50 µM; at human LPA1, less than 0.3 µM.
For `COc1ccc(CC(=O)O)cc1-c1ccc(-c2onc(C)c2NC(=O)OC(C)c2ccccc2Cl)cc1` (centres unmarked) [Compound 1-49, (4′-{4-[1-(2-Chloro-phenyl)-ethoxycarbonylamino]-3-methyl-isoxazol-5-yl}-6-methoxy-biphenyl-3-yl)-acetic acid], in that order: 1 to 50 µM and 0.3 to 1 µM.
In the case of `Cc1noc(-c2ccc(-c3ccc(CC(=O)O)cc3)cc2)c1NC(=O)OC(C)c1cccc(Br)c1` (centres unmarked) [Compound 1-27, (4′-{4-[1-(3-Bromo-phenyl)-ethoxycarbonylamino]-3-methyl-isoxazol-5-yl}-biphenyl-4-yl)-acetic acid], the values for the concentration for half-maximal inhibition (IC50) at human LPA3 and on human LPA1 were 1 to 50 µM and less than 0.3 µM, respectively.
For `Cc1noc(-c2ccc(-c3cc(CC(=O)O)ccc3F)cc2)c1NC(=O)OC(C)c1ccccc1Cl` (centres unmarked) [Compound 1-64, (4′-{4-[1-(2-Chloro-phenyl)-ethoxycarbonylamino]-3-methyl-isoxazol-5-yl}-6-fluoro-biphenyl-3-yl)-acetic acid], in that order: 1 to 50 µM and less than 0.3 µM.
Turning to `CCC(C(=O)O)c1ccc(-c2ccc(-c3onc(C)c3NC(=O)O[C@H](C)c3ccccc3Cl)cc2)cc1` (stereo partly drawn) [Compound 1-130, 2-(4′-{4-[(R)-1-(2-Chloro-phenyl)-ethoxycarbonylamino]-3-methyl-isoxazol-5-yl}-biphenyl-4-yl)-butyric acid], the concentration for half-maximal inhibition (IC50) is 0.3 to 1 µM at human LPA3 and less than 0.3 µM at human LPA1.
The matching figures for `Cc1noc(-c2ccc(-c3ccc(CC(=O)O)cc3)cc2)c1NC(=O)O[C@H](C)c1ccccc1F` [Compound 1-78, (4′-{4-[(R)-1-(2-Fluoro-phenyl)-ethoxycarbonylamino]-3-methyl-isoxazol-5-yl}-biphenyl-4-yl)-acetic acid]: 1 to 50 µM and less than 0.3 µM.
For `Cc1noc(-c2ccc(-c3ccc(CC(=O)O)cc3)cc2)c1NC(=O)OC(C)c1ccc(Cl)cc1F` (centres unmarked) [Compound 1-77, (4′-{4-[1-(4-Chloro-2-fluoro-phenyl)-ethoxycarbonylamino]-3-methyl-isoxazol-5-yl}-biphenyl-4-yl)-acetic acid], in that order: 1 to 50 µM and less than 0.3 µM.
As for `Cc1noc(-c2ccc(-c3ccc(F)c(CC(=O)O)c3)cc2)c1NC(=O)OC(C)c1ccccc1Cl` (centres unmarked) [Compound 1-65, (4′-{4-[1-(2-Chloro-phenyl)-ethoxycarbonylamino]-3-methyl-isoxazol-5-yl}-4-fluoro-biphenyl-3-yl)-acetic acid], the IC50 at human LPA3 is 1 to 50 µM; on human LPA1, less than 0.3 µM.
